Values of other authors, collected in US20140005280A1, “CARBOXYMETHYL STARCH AND CHITOSAN POLYELECTROLYTE COMPLEXES” (4413261 Canada Inc. (Spencer Canada), priority 2011, published 2014).

Details: US Pharmacopeia, 2000

In the case of `CC(=O)Oc1ccccc1C(=O)O` [aspirin, acetylsalicylic acid], the solubility is listed as “slightly soluble in water”.
